From ChEMBL document CHEMBL4507276 (2021)

What was measured:
[1] = target: Leukocyte tyrosine kinase receptor (Homo sapiens) (UniProt P29376); assay: LTK Invitrogen selectivity data (BI); details: Compound concentration 3.0 uM
[2] = target: Serine/threonine-protein kinase WNK2 (Homo sapiens) (UniProt Q9Y3S1); assay: WNK2 Invitrogen selectivity data (BI); details: Compound concentration 3.0 uM
[3] = tested on: Leucine-rich repeat serine/threonine-protein kinase 2 (Homo sapiens), Q5S007 [G2019S]; assay: LRRK2_G2019S Invitrogen selectivity data (BI); details: Compound concentration 3.0 uM
[4] = target: T1, Mitogen-activated protein kinase 12 (Homo sapiens) (UniProt P53778); assay: MAPK12 Invitrogen selectivity data (BI); details: Compound concentration 3.0 uM
T1 sequence (whole entry): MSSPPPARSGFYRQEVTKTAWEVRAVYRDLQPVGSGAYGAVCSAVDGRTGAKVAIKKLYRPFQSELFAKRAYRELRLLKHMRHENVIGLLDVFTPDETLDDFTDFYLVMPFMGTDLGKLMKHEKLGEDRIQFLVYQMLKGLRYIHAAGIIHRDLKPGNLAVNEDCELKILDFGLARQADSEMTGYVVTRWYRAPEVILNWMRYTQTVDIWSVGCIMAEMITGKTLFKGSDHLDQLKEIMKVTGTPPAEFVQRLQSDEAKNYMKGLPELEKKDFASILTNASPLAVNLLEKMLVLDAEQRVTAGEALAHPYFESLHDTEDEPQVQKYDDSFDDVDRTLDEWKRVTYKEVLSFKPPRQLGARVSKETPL

[5] = target: B1 bradykinin receptor (Homo sapiens) (UniProt P46663); assay: B1/H Eurofins-Panlabs selectivity data (BI); details: Compound concentration 10.0 uM
[6] = target: Sphingosine kinase 2 (Homo sapiens) (UniProt Q9NRA0); assay: SPHK2 Invitrogen selectivity data (BI); details: Compound concentration 3.0 uM
Homo sapiens = organism: Homo sapiens; assay: MLCK Invitrogen selectivity data (BI); details: Compound concentration 3.0 uM
[7] = target: RAF proto-oncogene serine/threonine-protein kinase (Homo sapiens) (UniProt P04049); assay: RAF1_Y_D Invitrogen selectivity data (BI); details: Compound concentration 3.0 uM
[8] = target: RAC-gamma serine/threonine-protein kinase (Homo sapiens) (UniProt Q9Y243); assay: AKT3 Invitrogen selectivity data (BI); details: Compound concentration 3.0 uM
[9] = target: AMP-activated protein kinase (AMPK) alpha-1/beta-1/gamma-1 (Homo sapiens) (UniProt P54619+Q9Y478+Q13131); assay: AMPK A1B1G1 Invitrogen selectivity data (BI); format: protein-complex assay; details: Compound concentration 3.0 uM
[10] = target: Mitogen-activated protein kinase kinase kinase kinase 5 (Homo sapiens) (UniProt Q9Y4K4); assay: MAP4K5 Invitrogen selectivity data (BI); details: Compound concentration 3.0 uM
[11] = target: T2, Muscarinic acetylcholine receptor M1 (Homo sapiens) (UniProt P11229); details: Compound concentration 10.0 uM
T2 sequence (whole entry): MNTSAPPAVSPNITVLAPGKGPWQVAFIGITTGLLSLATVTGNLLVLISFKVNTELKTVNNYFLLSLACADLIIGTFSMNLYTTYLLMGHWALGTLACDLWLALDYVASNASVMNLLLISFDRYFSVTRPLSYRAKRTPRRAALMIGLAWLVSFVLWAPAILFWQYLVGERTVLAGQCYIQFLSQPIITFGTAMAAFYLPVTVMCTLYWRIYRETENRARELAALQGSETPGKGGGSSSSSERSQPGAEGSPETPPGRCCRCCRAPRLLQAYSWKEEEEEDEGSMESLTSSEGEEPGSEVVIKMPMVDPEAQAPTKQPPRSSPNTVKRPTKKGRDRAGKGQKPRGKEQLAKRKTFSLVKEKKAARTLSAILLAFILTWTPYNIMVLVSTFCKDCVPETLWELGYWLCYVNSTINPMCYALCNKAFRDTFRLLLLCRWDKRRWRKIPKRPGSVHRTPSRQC

[12] = target: MAP/microtubule affinity-regulating kinase 3 (Homo sapiens) (UniProt P27448); assay: MARK3 Invitrogen selectivity data (BI); details: Compound concentration 3.0 uM
[13] = target: RAC-alpha serine/threonine-protein kinase (Homo sapiens) (UniProt P31749); assay: AKT1 Invitrogen selectivity data (BI); details: Compound concentration 3.0 uM
[14] = target: Sodium-dependent noradrenaline transporter (Homo sapiens) (UniProt P23975); assay: NEUP/H Cerep selectivity data (BI); details: Compound concentration 20.0 uM
[15] = target: Dual specificity protein kinase CLK3 (Homo sapiens) (UniProt P49761); assay: CLK3 Invitrogen selectivity data (BI); details: Compound concentration 3.0 uM
[16] = target: AMPK alpha2/beta1/gamma1 (Homo sapiens) (UniProt P54646+P54619+Q9Y478); assay: AMPK A2B1G1 Invitrogen selectivity data (BI); format: protein-complex assay; details: Compound concentration 3.0 uM
[17] = target: Myosin light chain kinase, smooth muscle (Homo sapiens) (UniProt Q15746); assay: MYLK Invitrogen selectivity data (BI); details: Compound concentration 3.0 uM
[18] = target: G protein-coupled receptor kinase 6 (Homo sapiens) (UniProt P43250); assay: GRK6 Invitrogen selectivity data (BI); details: Compound concentration 3.0 uM
[19] = target: Tumor necrosis factor (Homo sapiens) (UniProt P01375); assay: TNFALPHA/H Cerep selectivity data (BI); details: Compound concentration 20.0 uM
[20] = target: Protein kinase C gamma type (Homo sapiens) (UniProt P05129); assay: PRKCG Invitrogen selectivity data (BI); details: Compound concentration 3.0 uM
[21] = target: Mitogen-activated protein kinase kinase kinase kinase 4 (Homo sapiens) (UniProt O95819); assay: MAP4K4 Invitrogen selectivity data (BI); details: Compound concentration 3.0 uM

B1 bradykinin receptor (Homo sapiens), sequence (P46663 whole entry): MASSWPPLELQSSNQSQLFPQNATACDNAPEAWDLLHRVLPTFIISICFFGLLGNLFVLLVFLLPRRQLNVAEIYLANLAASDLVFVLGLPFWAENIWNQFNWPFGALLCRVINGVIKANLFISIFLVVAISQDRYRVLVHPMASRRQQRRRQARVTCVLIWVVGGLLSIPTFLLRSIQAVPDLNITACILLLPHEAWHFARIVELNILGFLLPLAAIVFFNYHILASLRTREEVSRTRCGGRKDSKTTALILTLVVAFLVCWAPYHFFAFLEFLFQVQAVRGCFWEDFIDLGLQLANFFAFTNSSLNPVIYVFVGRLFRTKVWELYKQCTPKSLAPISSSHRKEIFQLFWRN
RAC-alpha serine/threonine-protein kinase (Homo sapiens), sequence (P31749 whole entry): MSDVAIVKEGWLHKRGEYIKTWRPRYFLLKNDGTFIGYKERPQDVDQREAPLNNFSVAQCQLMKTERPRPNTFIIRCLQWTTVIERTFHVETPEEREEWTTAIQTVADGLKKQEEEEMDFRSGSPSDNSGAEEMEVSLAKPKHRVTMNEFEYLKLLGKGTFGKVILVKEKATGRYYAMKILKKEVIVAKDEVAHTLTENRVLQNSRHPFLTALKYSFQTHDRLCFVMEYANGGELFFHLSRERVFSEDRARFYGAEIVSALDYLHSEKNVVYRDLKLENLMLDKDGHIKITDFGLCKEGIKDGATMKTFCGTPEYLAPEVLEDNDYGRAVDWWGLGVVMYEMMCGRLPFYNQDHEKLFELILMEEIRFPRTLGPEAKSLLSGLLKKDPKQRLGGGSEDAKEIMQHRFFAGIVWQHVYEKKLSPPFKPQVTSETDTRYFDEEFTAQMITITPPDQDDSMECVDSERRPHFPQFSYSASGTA
Serine/threonine-protein kinase WNK2 (Homo sapiens), sequence (Q9Y3S1 whole entry): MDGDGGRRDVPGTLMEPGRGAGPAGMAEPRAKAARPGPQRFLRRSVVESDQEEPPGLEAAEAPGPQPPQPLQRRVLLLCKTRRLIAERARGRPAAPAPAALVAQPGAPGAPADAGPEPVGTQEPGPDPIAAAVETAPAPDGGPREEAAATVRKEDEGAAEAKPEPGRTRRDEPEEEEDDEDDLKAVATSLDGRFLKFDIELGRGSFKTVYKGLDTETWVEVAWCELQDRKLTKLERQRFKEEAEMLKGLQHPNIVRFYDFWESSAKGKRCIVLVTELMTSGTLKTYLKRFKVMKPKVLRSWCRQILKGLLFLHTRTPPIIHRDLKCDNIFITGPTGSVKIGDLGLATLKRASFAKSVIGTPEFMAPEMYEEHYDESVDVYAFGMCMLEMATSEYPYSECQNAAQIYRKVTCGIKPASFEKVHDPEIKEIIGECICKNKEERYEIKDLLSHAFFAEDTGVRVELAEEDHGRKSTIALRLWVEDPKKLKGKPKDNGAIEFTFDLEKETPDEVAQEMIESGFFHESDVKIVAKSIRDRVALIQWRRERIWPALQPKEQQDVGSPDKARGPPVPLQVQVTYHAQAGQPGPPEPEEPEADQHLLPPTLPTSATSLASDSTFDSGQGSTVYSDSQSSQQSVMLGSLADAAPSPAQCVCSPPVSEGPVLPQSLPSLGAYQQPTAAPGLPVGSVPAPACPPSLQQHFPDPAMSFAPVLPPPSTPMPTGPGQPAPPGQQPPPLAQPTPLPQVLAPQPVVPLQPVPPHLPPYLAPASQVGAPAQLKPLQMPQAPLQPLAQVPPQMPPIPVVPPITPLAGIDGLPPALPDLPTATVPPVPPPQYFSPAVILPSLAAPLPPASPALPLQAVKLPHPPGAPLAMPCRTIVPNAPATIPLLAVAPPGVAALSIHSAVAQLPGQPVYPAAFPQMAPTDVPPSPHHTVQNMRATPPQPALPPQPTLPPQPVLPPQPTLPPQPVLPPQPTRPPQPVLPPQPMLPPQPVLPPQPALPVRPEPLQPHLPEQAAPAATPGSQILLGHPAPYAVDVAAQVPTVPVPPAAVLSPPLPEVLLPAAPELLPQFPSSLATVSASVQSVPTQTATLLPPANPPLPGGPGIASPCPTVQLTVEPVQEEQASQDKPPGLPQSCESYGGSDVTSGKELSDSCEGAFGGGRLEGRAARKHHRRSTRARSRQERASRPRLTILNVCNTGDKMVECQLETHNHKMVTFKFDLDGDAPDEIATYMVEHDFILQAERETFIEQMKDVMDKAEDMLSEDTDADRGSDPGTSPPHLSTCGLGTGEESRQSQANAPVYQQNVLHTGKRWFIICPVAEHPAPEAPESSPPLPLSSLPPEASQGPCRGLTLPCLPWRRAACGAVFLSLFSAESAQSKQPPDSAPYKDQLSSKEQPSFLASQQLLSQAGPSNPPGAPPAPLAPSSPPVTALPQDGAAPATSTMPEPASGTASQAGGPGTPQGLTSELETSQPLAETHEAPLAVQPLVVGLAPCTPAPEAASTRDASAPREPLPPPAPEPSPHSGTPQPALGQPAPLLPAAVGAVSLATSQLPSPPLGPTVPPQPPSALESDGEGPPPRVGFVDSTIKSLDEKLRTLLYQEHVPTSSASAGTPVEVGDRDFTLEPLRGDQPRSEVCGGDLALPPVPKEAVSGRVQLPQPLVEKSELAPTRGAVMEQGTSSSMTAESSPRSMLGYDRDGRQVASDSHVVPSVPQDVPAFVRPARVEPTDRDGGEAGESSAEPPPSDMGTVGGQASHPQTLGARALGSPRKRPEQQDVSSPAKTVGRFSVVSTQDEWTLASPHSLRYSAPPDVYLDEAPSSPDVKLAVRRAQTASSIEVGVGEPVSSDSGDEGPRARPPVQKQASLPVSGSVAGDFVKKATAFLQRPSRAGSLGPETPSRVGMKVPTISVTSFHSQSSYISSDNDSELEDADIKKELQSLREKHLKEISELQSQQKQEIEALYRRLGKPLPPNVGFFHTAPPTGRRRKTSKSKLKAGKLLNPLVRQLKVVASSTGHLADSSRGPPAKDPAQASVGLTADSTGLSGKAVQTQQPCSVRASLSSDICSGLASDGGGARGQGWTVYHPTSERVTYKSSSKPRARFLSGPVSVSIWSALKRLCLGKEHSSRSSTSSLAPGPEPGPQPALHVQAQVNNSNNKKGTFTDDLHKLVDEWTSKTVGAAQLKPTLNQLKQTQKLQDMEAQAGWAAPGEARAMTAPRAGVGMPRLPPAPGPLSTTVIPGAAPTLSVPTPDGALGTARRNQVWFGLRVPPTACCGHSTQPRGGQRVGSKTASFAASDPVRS
RAF proto-oncogene serine/threonine-protein kinase (Homo sapiens), sequence (P04049 whole entry): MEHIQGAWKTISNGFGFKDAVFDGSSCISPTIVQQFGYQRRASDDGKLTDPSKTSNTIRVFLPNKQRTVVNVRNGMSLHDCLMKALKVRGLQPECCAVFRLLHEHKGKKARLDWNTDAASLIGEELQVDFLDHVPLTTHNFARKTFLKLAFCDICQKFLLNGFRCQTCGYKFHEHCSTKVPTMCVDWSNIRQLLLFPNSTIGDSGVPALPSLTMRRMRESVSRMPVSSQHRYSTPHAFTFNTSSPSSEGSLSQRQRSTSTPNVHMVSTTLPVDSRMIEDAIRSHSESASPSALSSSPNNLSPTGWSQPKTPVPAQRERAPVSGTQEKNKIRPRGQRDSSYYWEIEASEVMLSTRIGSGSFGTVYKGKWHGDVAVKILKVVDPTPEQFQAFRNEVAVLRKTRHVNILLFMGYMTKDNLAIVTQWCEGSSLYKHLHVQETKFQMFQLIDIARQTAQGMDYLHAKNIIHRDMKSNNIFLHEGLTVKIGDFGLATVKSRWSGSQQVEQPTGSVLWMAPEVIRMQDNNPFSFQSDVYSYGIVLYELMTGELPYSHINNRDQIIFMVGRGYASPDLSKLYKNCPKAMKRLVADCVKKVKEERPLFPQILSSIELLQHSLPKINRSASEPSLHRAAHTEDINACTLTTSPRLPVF
RAC-gamma serine/threonine-protein kinase (Homo sapiens), sequence (Q9Y243 whole entry): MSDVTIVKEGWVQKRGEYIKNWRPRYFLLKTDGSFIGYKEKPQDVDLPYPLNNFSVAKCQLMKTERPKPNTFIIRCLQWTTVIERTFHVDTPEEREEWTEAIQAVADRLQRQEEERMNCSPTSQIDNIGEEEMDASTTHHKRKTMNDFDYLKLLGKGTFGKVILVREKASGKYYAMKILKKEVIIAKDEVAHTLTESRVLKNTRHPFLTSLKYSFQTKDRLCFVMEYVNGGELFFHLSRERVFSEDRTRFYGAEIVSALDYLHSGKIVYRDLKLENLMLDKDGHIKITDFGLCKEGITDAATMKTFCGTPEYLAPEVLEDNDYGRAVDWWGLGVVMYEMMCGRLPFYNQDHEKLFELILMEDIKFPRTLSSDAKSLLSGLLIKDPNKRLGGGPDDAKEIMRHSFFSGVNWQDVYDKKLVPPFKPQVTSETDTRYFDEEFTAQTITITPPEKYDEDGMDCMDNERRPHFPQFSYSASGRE

CN(C)C(=O)Cn1cc(-c2nc([C@@](C)(c3ccc(-c4cnc(N)nc4)cc3)C3CC3)no2)cn1 [BI 665915]
inactive: residual activity [1] 96.5% | residual activity [2] 96% | residual activity [3] 89% | residual activity [4] 91.5% | residual activity [5] 112% | residual activity [6] 97% | residual activity (Homo sapiens) 98% | residual activity [7] 98% | residual activity [8] 102% | residual activity [9] 104% | residual activity [10] 93% | inhibition [11] -4.93% | residual activity [12] 98% | residual activity [13] 99% | residual activity [14] 94% | residual activity [15] 95.5% | residual activity [16] 100% | residual activity [17] 100% | residual activity [18] 102% | residual activity [19] 87% | residual activity [20] 100% | residual activity [21] 96.5%
